Results published in patent publication US20080063643A1, “Peptide Derived From Hepatitis C Virus” (priority 2003, published 2008).

System: peptide-specific IgG
Experiment: ELISA screening of peptide-reactive IgG in plasma of 12 HCV-1b patients and 10 HDs (Example 2)
Type: binding, human
Conditions: plasma dilution 1:100; for Reactivity to peptide-specific IgG HD (n = 10): number of 10 HDs above cut-off 0.18 OD; for Reactivity to peptide-specific IgG Patients (n = 12): number of 12 HCV-1b+ patients above cut-off 0.18 OD
From the text: Forty-four types of synthetic peptides that were derived from a highly conserved region of HCV-1b protein and selected based on a high binding score to HLA-A24 molecule (Bioinformatics and Molecular Analysis Section, NIH, Bethesda, Md.) were used. A peptide derived from HIV that has an HLA-A24 binding motif ([…] (SEQ ID NO: 63)) served as a negative control. For the screening of the reactivity of peptide to serum IgG, desalted grade of the peptides (>70%) were purchased from BioSynthesis (Lewisville, Tex.) or SynPep (Dublin, Calif.). A purified peptide (>90%) was used in the subsequent experiments. The plasma level of peptide-specific IgG was measured by an enzyme-linked immunosorbent assay (ELISA). The specificity of anti-peptide IgG in a plasma sample was tested by the absorption and elution of peptide-reactive IgG.
In order to screen for a humoral response to the peptides, the level of IgG reactive to each of the 44 types of peptides was assayed in the plasma of 12 patients infected with HCV-1b. The plasma of 10 HDs was used as a negative control. The level of peptide-reactive IgG was measured by ELISA for serially diluted plasma samples and reported by the values of absorbance (OD) of each sample. The cut-off value of these peptides at a plasma dilution of 1:100 was set at 0.18 OD (mean (0.08)+2SD (0.05×2) of 10 HDs). A significant level (>0.18 OD at a plasma dilution of 1:100) of IgG reactive to NS5A-2132, C-176, E2-488, E1-213, C-173 and NS3-1081 peptides were detectable in the plasma of 12, 11, 10, 9, 8 and 5 patients among the 12 patients, respectively (FIG. 9). As expected, none of these peptides was reactive to the plasma from the 10 HDs.

Row | Sequence | Reactivity to peptide-specific IgG HD (n = 10) | Reactivity to peptide-specific IgG Patients (n = 12)
1 | AFTASITSPL [No. 35] | 0 | 0
2 | AFYGVWPLL [No. 63] | 0 | 0
3 | AYAAQGYKVL [No. 24] | 0 | 2
4 | AYALYGVWPL [No. 26] | 0 | 2
5 | AYMSKAHGI [No. 11] | 0 | 2
6 | AYSQQTRGL [No. 8] | 0 | 0
7 | DFKTWLQSKL [No. 36] | 0 | 1
8 | EFWESVFTGL [No. 31] | 0 | 0
9 | EYVLLLFLL [No. 4] | 0 | 2
10 | FFTEVDGVRL [No. 37] | 0 | 1
11 | GYGAGVAGAL [No. 23] | 0 | 2
12 | GYIPIVGAPL [No. 19] | 0 | 1
13 | HYKLFLARL [No. 9] | 0 | 0
14 | HYPCTVNFTI [No. 27] | 0 | 2
15 | HYRDVLKEM [No. 61] | 1 | 3
16 | HYVQMALMKL [No. 21] | 0 | 3
17 | IFTITKILL [No. 18] | 0 | 3
18 | LFLARLIWWL [No. 33] | 0 | 0
19 | LYGVWPLLL [No. 7] | 0 | 0

Row | Sequence | Reactivity to peptide-specific IgG HD (n = 10) | Reactivity to peptide-specific IgG Patients (n = 12)
20 | MYTNVDQDL [No. 5] | 0 | 0
21 | MYVGGVEHRL [No. 20] | 0 | 0
22 | NFISGIQYL [No. 15] | 0 | 0
23 | PYFVRAHGL [No. 16] | 0 | 0
24 | PYIEQGMQL [No. 14] | 0 | 1
25 | QFKQKAIGL [No. 17] | 0 | 3
26 | QFKQKALGL [No. 64] | 0 | 1
27 | QFKQKALGLL [No. 66] | 0 | 1
28 | QYLAGLSTL [No. 6] | 0 | 0
29 | QYSPGQRVEF [No. 65] | 0 | 0
30 | SFAIKWEYVL [No. 39] | 0 | 1
31 | SYTWTGALI [No. 60] | 0 | 0
32 | TFLVGLNQYL [No. 29] | 0 | 2
33 | TYATYGKFL [No. 10] | 0 | 1
34 | TYVYDHLTPL [No. 22] | 0 | 2
35 | VFVGLILLTL [No. 30] | 0 | 2
36 | WFMWCLLLL [No. 62] | 0 | 3
37 | YFITRAEAHL [No. 34] | 1 | 1
38 | YYRGLDVSVI [No. 28] | 0 | 2
